Reference: patent US12048281B2, “Method for treating post-emergent rice” (BASF SE, priority 2009, dated 2024)

Experiments:
[1] = test system: transgenic Indica1 rice callus, ACC gene containing I1781(Am)L and I2041(Am)N; assay: Growth of transgenic Indica1 callus on selection media; format: cell-based, Oryza sativa; settings: construct I1781(Am)L
Experimental: (§1) Indica1 and Nipponbare rice callus transformation was carried out essentially as described in Hiei and Komari (2008) with the exception of media substitutions as specified (see attached media table for details). Callus was induced on R001M media for 4-8 weeks prior to use in transformation. Agrobacterium utilized was LBA4404(pSB1) (Ishida et al. 1996) transformed with RLM185 (L. Mankin, unpublished: contains DsRed and a mutant AHAS for selection), ACC gene containing I1781(Am)L, ACC gene containing I1781(Am)L and W2027C, ACC gene containing I1781(Am)L and I2041(Am)N, or ACC gene containing I1781(Am)A or wild type which also contains a mutant AHAS gene for selection. Agrobacterium grown for 1-3 days on solid media was suspended in M-LS-002 medium and the OD660 adjusted to approximately 0.1. Callus was immersed in the Agrobacterium solution for approximately 30 minutes. Liquid was removed, and then callus was moved to filter paper for co-culture on semi-solid rice cc media. Co-culture was for 3 days in the dark at 24° C. Filters containing rice callus were directly transferred to R001M media containing Timentin for 1-2 weeks for recovery and cultured in the dark at 30° C. Callus was subdivided onto fresh R001M media with Timentin and supplemented with 100 μM Imazethapyr, 10 μM Cycloxydim or 2.5 μM Tepraloxydim. After 3-4 weeks, callus was transferred to fresh selection media. Following another 3-4 weeks, growing callus was transferred to fresh media and allowed to grow prior to Taqman analysis. Taqman analysis was for the Nos terminator and was conducted to provide for a molecular confirmation of the transgenic nature of the selected calli. Growth of transgenic calli was measured with various selection agents by subculturing calli on media containing either 10 μM Cycloxydim or Haloxyfop, 2.5 μM Tepraloxydim or 100 μM Imazethapry. Calli size was measured from scanned images following initial subculture and then after approximately 1 month of growth.
(§2) As can be observed in Table 7, the double mutant constructs allowed for growth on both Cycloxydim and Tepraloxydim in addition to Haloxyfop. The levels utilized in these growth experiments are inhibitory for wild type material. Growth was measured as a % change in size following 1 month of culture on the selection media.

[2] = test system: transgenic Indica1 rice callus, ACC gene containing I1781(Am)L and W2027(Am)C; assay: as above; format: cell-based, Oryza sativa; settings: construct I1781(Am)L
Experimental: as §1, §2

[3] = test system: control plants (wild-type cultivars, red rice) and tissue culture escapes; assay: Greenhouse track-sprayer test, herbicide injury rating; format: in vivo, Oryza sativa; settings: 400-1600 g ai/ha with 0.1% methylated seed oil; rated 1 and 2 weeks after treatment
Experimental: (§3) Selected mutants and escapes were transferred to small pots. Wild-type cultivars and 3 biovars of red rice were germinated from seed to serve as controls.
(§4) After ca. 3 weeks post-transplant. M0 regenerants were sprayed using a track sprayer with 400-1600 g ai/ha cycloxydim (BAS 517H) supplemented with 0.1% methylated seed oil. After the plants had adapted to greenhouse conditions, a subset were sprayed with 800 g ai/ha cycloxydim. Once sprayed, plants were kept on drought conditions for 24 hours before being watered and fertilized again. Sprayed plants were photographed and rated for herbicide injury at 1 (FIG. 3) and 2 weeks after treatment (FIG. 4). […] FIGS. 5-15 provide nucleic acid and/or amino acid sequences of acetyl-Coenzyme A carboxylase enzymes from various plants. FIG. 17 provides a graph showing results for mutant rice versus various ACCase inhibitors.

[4] = test system: rice plants containing the I1,781(Am)L heterozygous mutation; format: in vivo, Oryza sativa; settings: 400-1600 g ai/ha with 0.1% methylated seed oil; rated 1 and 2 weeks after treatment
Experimental: as §3, §4

[5] = test system: ACCase-inhibitor tolerant rice plants; assay: Field treatment of ACCase-inhibitor tolerant rice; format: in vivo, Oryza sativa; settings: 600 g/ha; data not shown

CCc1cnc(C2=NC(C)(C(C)C)C(=O)N2)c(C(=O)O)c1 (centres unmarked) [P100, Imazethapyr]
Growth, % change in size following 1 month of culture on the selection media ([1]; 100 μM in selection media): 634%
Growth, % change in size following 1 month of culture on the selection media ([2]; 100 μM in selection media): 739%

CCCC(=NOCC)C1=C(O)CC(C2CCCSC2)CC1=O (centres unmarked) [cycloxydim]
herbicide injury [3]: heavily damaged
herbicide injury [4]: No injury
Growth, % change in size following 1 month of culture on the selection media ([1]; 10 μM in selection media): 884%
Growth, % change in size following 1 month of culture on the selection media ([2]; 10 μM in selection media): 867%
herbicide tolerance in the field [5]: Herbicide tolerance phenotypes as described herein have also been exhibited

CC(Oc1ccc(Oc2ncc(C(F)(F)F)cc2Cl)cc1)C(=O)O (centres unmarked) [haloxyfop]
Growth, % change in size following 1 month of culture on the selection media ([1]; 10 μM in selection media): 1613%
Growth, % change in size following 1 month of culture on the selection media ([2]; 10 μM in selection media): 1669%

CC/C(=N\OC/C=C/Cl)C1=C(O)CC(C2CCOCC2)CC1=O (centres unmarked) [tepraloxydim]
Growth, % change in size following 1 month of culture on the selection media ([1]; 2.5 μM in selection media): 1360%
Growth, % change in size following 1 month of culture on the selection media ([2]; 2.5 μM in selection media): 1416%
